Laboratory results as given in US11414415B2, “6H-imidazo[4,5,1-ij]quinolone, synthesis method and use thereof” (HANGZHOU NORMAL UNIVERSITY, priority 2020, dated 2022).

test system: A549 (lung cancer cell); test: MTT tumor cell proliferation assay on A549 lung cancer cells; format: cell-based; conditions: Homo sapiens, 48 h, 44 h culture + 4 h MTT, read at 570 nm, sample concentration 0.5 mg/mL (water as solvent)
Procedure: Biological activity assay was conducted on compounds I-d to I-f prepared in the above examples:
Original osimertinib was used as control.
Specific procedure was as follows: plating A549 cells in a 96-well plate at a cell density of 2×10^4 cells/mL; after placing in an incubator overnight at 37° C. in 5% CO2, adding samples to be screened (sample concentrations are given in Table 1; medication groups were given 10 μL of the drug at the corresponding concentration per well, and blank control group was given 10 μL of PBS per well); after culturing for 44 h, adding 10 μL of MTT per well to culture for additional 4 h; dissolving in DMSO, shaking, and detecting on a microplate reader at 570 nm.
Inhibitory concentration 50 (IC50) values of 6H-imidazo[4,5,1-ij]quinolone derivatives with structures as shown in formulas I-d to I-f and control drug original osimertinib against A549 (lung cancer cell) were detected.

Structure (SMILES) | IC50
O=c1ccn2c(-c3ccccc3Cl)nc3cccc1c32 [I-c] | 16.2 µM
Cc1ccc(-c2nc3cccc4c(=O)ccn2c34)cc1 [I-a] | 11.2 µM
C=CC(=O)Nc1cc(Nc2nccc(-c3cn(C)c4ccccc34)n2)c(OC)cc1N(C)CCN(C)C [Osimertinib, osimertinib, reference compound] | 9.74 µM
O=c1ccn2c(-c3cccs3)nc3cccc1c32 [I-d] | 9.9 µM
COc1cc2nc(-c3ccccc3)n3ccc(=O)c(c1)c23 [I-f] | 12.3 µM
O=c1ccn2c(-c3ccc(F)cc3)nc3cccc1c32 [I-b] | 15.3 µM
O=c1ccn2c(C3CC3)nc3cccc1c32 [I-e] | 21.1 µM

same assay, conditions: statement in words

Structure (SMILES) | IC50 value compared with osimertinib
O=c1ccn2c(-c3cccs3)nc3cccc1c32 [I-d] | equivalent to anti-lung cancer drug osimertinib
